Laboratory results taken from patent publication US11459338B2, “Heterocyclic compounds as PRMT5 inhibitors” (JUBILANT EPISCRIBE LLC, priority 2018, dated 2022).
Read-outs that look alike come from different tables or passages of the source.

Assays:
[1] = test system: Symmetric di-methyl arginine in Z-138 cells; assay: Z-138 methylation assay, ELISA for detection of symmetric di-methyl arginine; type: cell-based; settings: Homo sapiens
Experimental: General reagents. […] Iscove's Modified Dulbecco's Medium (IMDM), Horse serum, penicillin-streptomycin, PBS and TMB-ELISA substrate solution were purchased from ThermoFisher Scientific. Symmetric di-methyl arginine antibody was purchased from Cell Signaling Technologies.Anti-SNRPD3/SmD3 antibody was purchased from Sigma-Aldrich.
ELISA for detection of Symmetric di-methyl arginine. […] A compound source plate was prepared by performing ten-point 3-fold dilution in DMSO, such that the final top concentration of the compound was 10 μM, and DMSO was 0.3%. The total volume of compounds added was 20 μL. The cells were incubated for 96 h at 37° C., 5% CO2. Z-138 cells were directly lysed in media with 3× Lysis Buffer (1×: 10 mM HEPES pH7.9, 5 mM MgCl2, 1M NaCl, 0.25M Sucrose, 1% Triton X-100, 1 mM PMSF, Protease & Phosphatase inhibitors). […] Plates were incubated at room temperature for a minimum of 3 h and then washed with PBS-Tween 20 (0.05%). The plates were blocked with 5% BSA at room temperature for 1 h, washed with PBS-Tween 20 and incubated with primary antibody at 4 C overnight.

Z-138 cells = assay: Z-138 long term proliferation assay (Cell Titer Glo); type: cell-based; settings: Homo sapiens; for GI50: 192 h, Z-138 cells, cell viability, day 8, read-out: PRMT5 Z138 GI50 Day 8 μM; for IC50: Z-138, 192 h, summary of Table 1, read-out: IC50 value (all the three assays): Z138 GI50 Day 8
Outline: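 Z-138 cells exposed to ten-point 3-fold dilutions (top 10 μM, 0.3% DMSO) for 96 h at 37° C., 5% CO2, then re-dosed for four more days.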

PRMT5/MEP50 = biological target: T1, PRMT5/MEP50 (Homo sapiens, UniProt O14744); assay: PRMT5/MEP50 enzyme assay on peptide substrates (3H-SAM Flashplate); type: biochemical; settings: PRMT5/MEP50 10 nM, H4 1-15aa peptide 100 nM, 3H-SAM 1 μM
T1 construct: Full-length human PRMT5 (NP_006100)
T1 sequence (O14744 whole entry): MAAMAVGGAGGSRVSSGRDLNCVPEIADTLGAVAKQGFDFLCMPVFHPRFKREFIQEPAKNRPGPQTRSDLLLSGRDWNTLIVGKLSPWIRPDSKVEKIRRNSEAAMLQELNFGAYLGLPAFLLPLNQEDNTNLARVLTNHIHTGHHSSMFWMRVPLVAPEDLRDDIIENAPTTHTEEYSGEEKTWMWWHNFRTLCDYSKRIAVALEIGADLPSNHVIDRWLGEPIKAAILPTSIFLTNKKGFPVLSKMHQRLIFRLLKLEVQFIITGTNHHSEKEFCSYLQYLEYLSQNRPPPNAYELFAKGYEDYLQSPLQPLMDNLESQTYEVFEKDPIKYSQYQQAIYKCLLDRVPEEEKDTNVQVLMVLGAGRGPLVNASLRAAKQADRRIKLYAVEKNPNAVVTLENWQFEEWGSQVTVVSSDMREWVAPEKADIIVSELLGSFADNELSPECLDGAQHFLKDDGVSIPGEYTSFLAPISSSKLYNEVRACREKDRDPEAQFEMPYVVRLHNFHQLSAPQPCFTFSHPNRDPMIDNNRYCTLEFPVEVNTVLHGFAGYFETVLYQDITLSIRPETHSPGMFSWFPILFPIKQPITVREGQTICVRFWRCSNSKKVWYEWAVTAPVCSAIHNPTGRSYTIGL
T1 sequence (Q9BQA1 whole entry partner): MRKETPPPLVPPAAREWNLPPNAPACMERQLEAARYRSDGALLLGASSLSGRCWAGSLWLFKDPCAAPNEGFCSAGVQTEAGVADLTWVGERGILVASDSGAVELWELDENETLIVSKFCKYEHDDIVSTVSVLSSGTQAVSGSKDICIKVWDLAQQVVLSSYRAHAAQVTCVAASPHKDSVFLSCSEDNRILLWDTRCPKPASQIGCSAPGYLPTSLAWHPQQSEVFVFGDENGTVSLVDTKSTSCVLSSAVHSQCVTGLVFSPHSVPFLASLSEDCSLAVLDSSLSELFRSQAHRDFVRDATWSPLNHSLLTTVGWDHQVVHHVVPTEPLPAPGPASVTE

[2] = Z-138 cells, 96 h (day 4), read-out: PRMT5 Z138 SDMA ELISA Day 4 μM
[3] = Z-138, 96 h, summary of Table 1, read-out: IC50 value (all the three assays): Z138 SDMA ELISA Day 4

Row | Compound | IC50 [1, 2] [µM] | IC50 (PRMT5/MEP50) [µM] | IC50 [1, 3] [µM] | GI50 (Z-138 cells) [µM] | IC50 (Z-138 cells) [µM]
1 | O=C(NC[C@H](O)CN1CCc2ccccc2C1)c1cn2c(n1)CCC(C(F)(F)F)C2 (stereo partly drawn) [Example 114, N—((S)-3-(3,4-dihydroisoquinolin-2(1H)-yl)-2-hydroxypropyl)-6-(trifluoromethyl)-5,6,7,8-tetrahydroimidazo[1,2-a]pyridine-2-carboxamide] | 0.01 to 1 | 1 to 5 | – | 0.01 to 1 | –
2 | O=C(NC[C@H](O)CN1CCc2ccccc2C1)c1cn2c(n1)CCC(c1ccc(F)cc1)C2 (stereo partly drawn) [Example 115, N—((S)-3-(3,4-dihydroisoquinolin-2(1H)-yl)-2-hydroxypropyl)-6-(4-fluorophenyl)-5,6,7,8-tetrahydroimidazo[1,2-a]pyridine-2-carboxamide] | 0.01 to 1 | 0.01 to 1 | 0.01 to 1 | 0.01 to 1 | 0.01 to 1
3 | O=C(NC[C@H](O)CN1CCc2ccccc2C1)c1cn2c(n1)COC(c1ccc(F)cc1)C2 (stereo partly drawn) [Example 116, N—((S)-3-(3,4-dihydroisoquinolin-2(1H)-yl)-2-hydroxypropyl)-6-(4-fluorophenyl)-5,6-dihydro-8H-imidazo[2,1-c][1,4]oxazine-2-carboxamide] | 0.01 to 1 | 0.01 to 1 | 0.01 to 1 | 0.01 to 1 | 0.01 to 1

The next lines start with results.

Row | IC50 [1, 2] [µM] | IC50 (PRMT5/MEP50) [µM] | IC50 [1, 3] [µM] | Compound | GI50 (Z-138 cells) [µM] | IC50 (Z-138 cells) [µM]
4 | 0.01 to 1 | 0.01 to 1 | 0.01 to 1 | O=C(NC[C@H](O)CN1CCc2ccccc2C1)c1cn2c(n1)CC[C@@H](C(F)(F)F)C2 [Example 121A, (R)—N—((S)-3-(3,4-dihydroisoquinolin-2(1H)-yl)-2-hydroxypropyl)-6-(trifluoromethyl)-5,6,7,8-tetrahydroimidazo[1,2-a]pyridine-2-carboxamide] | 0.01 to 1 | 0.01 to 1
5 | 0.01 to 1 | 1 to 5 | – | O=C(NC[C@H](O)CN1CCc2ccccc2C1)c1cn2c(n1)CC[C@H](C(F)(F)F)C2 [Example 121B, (S)—N—((S)-3-(3,4-dihydroisoquinolin-2(1H)-yl)-2-hydroxypropyl)-6-(trifluoromethyl)-5,6,7,8-tetrahydroimidazo[1,2-a]pyridine-2-carboxamide] | 0.01 to 1 | –
